In patent US8795222B2, “Device and method for treatment of surface infections with nitric oxide” (Pulmonox Technologies Corp., priority 2000, dated 2014):

Columns and labels:
[1] = test system: Acinetobacter sp.; experiment: Bacteriocidal time study, 200 ppm gNO, saline suspension; type: cell-based
Protocol: (§1) Following the dose and time ranging studies, a series of experiments were performed to determine the time required to effectively induce a bacteriocidal effect with 200 parts per million of gNO, a concentration just above the dose used in the dose-ranging study, on a representative collection of drug resistant gram-positive and gram-negative strains of bacteria associated with clinical infection. A successful bacteriocidal effect was defined as a decrease in bacteria greater than 3 log10 cfu/ml. Further, C. albicans, Methicillin Resistant S. aureus (MRSA), a particularly resistant strain of P. aeruginosa from a cystic fibrosis patient, Group B Streptococcus, and M. smegmatis were also included to see if yeast, multi-drug resistant strains of bacteria, and actinomycetes have a similar response. The drug-resistant bacteria represent a variety of pathogens that contribute to both respiratory and wound infections.
(§2) For these experiments, saline was selected as a suspension media because it would not mask the direct effect of gNO as a bacteriocidal, whereas fully supplemented growth medium might introduce external variables (e.g., buffer or react with gNO). Other media might also provide metabolites and replenish nutrients that produce enzymes that protect bacteria from oxidative and nitrosative damage, thereby masking the effect of gNO. […] In saline, the colonies were static but remained viable. This is similar to the approach of Webert and Jean's use of animal models. Webert K E, et al (2000), Effects of inhaled nitric oxide in a rat model of Pseudomonas aeruginosa pneumonia, Crit. Care Med, 28(7):2397-2405 and Jean D, et al., (2002) Beneficial effects of nitric oxide inhalation on pulmonary bacterial clearance, Critical Care Medicine. 30(2):442-7.
(§3) The latent period was then followed by an abrupt death of all cells. Gram negative and gram positive bacteria, antibiotic resistant bacterial strains, yeast and mycobacteria were all susceptible to 200 ppm gNO. Of importance, is the observation that the two drug resistant bacteria strains were also susceptible.

[2] = test system: Enterobacter sp.; experiment: as above; type: cell-based
Protocol: as §1, §2, §3

[3] = test system: Klebsiella sp. #1; experiment: as above; type: cell-based
Protocol: as §1, §2, §3

[4] = test system: S. aureus (Clinical); experiment: as above; type: cell-based
Protocol: as §1, §2, §3

[5] = test system: Group B Streptococci; experiment: as above; type: cell-based, Group B Streptococcus
Protocol: as §1, §2, §3

[6] = test system: Mycobacterium; experiment: as above; type: cell-based, M. smegmatis
Protocol: as §1, §2
as §3, with “susceptible. […]” for “susceptible.”

[7] = Full thickness infected wound model, toxicity, serum NOx and methemoglobin; type: in vivo, rabbits
From the text: (§4) In vivo studies in animal models have further shown the beneficial effects of nitric oxide gas. In an animal model, full-thickness cutaneous wounds (Set A: four rabbits with eight 8.0 mm punch biopsies & Set B: 4 rabbits with two 50×15 mm wounds) were made on each side of dorsal midline and infected with equal volume of Staphylococcus aureus suspension on day zero. On day one, treated groups in A and B were respectively exposed to 200 and 400 ppm gNO for total of three days. Set A was exposed for two 4-hour sessions, interrupted by 1-hour of rest, inside a specialized restraining exposure chamber. A 24-hour continuous delivery model was used for animals in Set B by design of a specialized wound patch. Control groups were only exposed to medical grade air with corresponding flow rate. Four random sample punch biopsies (8.0 mm) were collected on post wounding days 3 and analyzed for bacterial content. Another four punch biopsies from both wound and normal skin tissue were collected for fibroblast viability analysis and toxic effects of gNO.
On average well over 10 fold drop (p<0.05) in bacterial content is observed in comparison between control and treated groups.
FIG. 12 indicates the level of methemoglobin (MetHb) in animal's blood following 6 day intermittent exposure to 200 ppm gNO.

[8] = test system: full thickness infected wound; experiment: Histology of full thickness infected wound biopsies; type: in vivo, rabbits; settings: 200 ppm gNO
Protocol: FIG. 13 illustrates histology analysis of full thickness infected wound exposed to 200 ppm gNO for 24 hours.
as §4
FIG. 13 presents histological analysis of tissue blocks prepared on wound punch biopsies from animals in treated and control groups. Samples from the control group show more advanced neutrophil infiltration and so a higher degree of inflammatory reaction. […] Wounds treated with gNO also show a layer of scab closing on the wound, but control wounds remain open for longer period of time.

[9] = test system: collagenase mRNA; experiment: mRNA expression after gNO exposure; type: cell-based; settings: 200 ppm gNO; 24 hours and 48 hours
From the text: Witte M B, et al, (2002) Nitric oxide enhances […] wound healing in diabetes, Br J. Surg., 89:1594-601. Thus, Applicants believe that NO may upregulate expression of both collagenase (MMP-1) and gelatinase (MMP-2), which may be important in keeping the wound clean from necrotic tissue while not prolonging the inflammatory phase.

[10] = test system: Fibroblast cells; experiment: Fibroblast viability study in gNO chamber; type: cell-based, human
Protocol: Fibroblast cells obtained from adult patients undergoing elective reconstructive surgery were cultured in Dulbeco's Modified Eagle's Medium (DMEM), supplemented with 10% fetal bovine serum (FBS) and antibiotic-antimycotic preparation and divided into ten 25 cm^2 vented culture flasks (COSTAR). […] The NO exposure chamber was validated prior to the study to eliminate extraneous variables and ensure optimal conditions for fibroblast cell growth. Another four flasks (control group) were placed inside conventional culture incubator and exposed only to ambient humidified air at 37° C. Two flasks were separately harvested and counted as the number of cells at zero time. Following the treatment, fibroblast cells were harvested and evaluated for morphology, cell count, capacity to proliferate and medium pH.
Cells under gNO appeared healthy and attached to the culture plates.
Capability of cells to reattach to the culture plates within a specified time limit is commonly used as an indication of viability of cells in culture. Both the control and treated groups show a 70% attachment capacity within 1 hour of culturing.

[11] = test system: human endothelial cells; experiment: Tube formation in matrigel; type: cell-based; settings: 200 ppm NO versus air, 8 hours or 24 hours
Protocol: Left panels at 8 hours of exposure. Right panels at 24 hours of exposure.

With [N]=O [gNO, nitric oxide] the LD100 [1] was 6 h, the “Latent Period*” value [1] was 4 h and the “−2.5 Log10” value ([1]; time to −2.5 log10 cfu/ml) was 5 hrs. The LD100 [2] was 6 h, the “Latent Period*” value [2] was 4 h and the “−2.5 Log10” value ([2]; time to −2.5 log10 cfu/ml) was 5.3 hrs. For the same molecule, the LD100 [3] was 6 h, the “Latent Period*” value [3] was 3 h and the “−2.5 Log10” value ([3]; time to −2.5 log10 cfu/ml) was 3.5 hrs. For the same molecule, the LD100 [4] was 4 h, the “Latent Period*” value [4] was 3 h and the “−2.5 Log10” value ([4]; time to −2.5 log10 cfu/ml) was 3.7 hrs. For the same molecule, the LD100 [5] was 2 h, the “Latent Period*” value [5] was 1 h and the “−2.5 Log10” value ([5]; time to −2.5 log10 cfu/ml) was 1.5 hrs. For the same molecule, the LD100 [6] was 10 h, the “Latent Period*” value [6] was 7 h and the “−2.5 Log10” value ([6]; time to −2.5 log10 cfu/ml) was 9.2 hrs. For the same molecule, the “blood serum NOx (NO2 and NO3) level” value ([7]; 200 ppm gNO intermittently for 6 days) was “None of the samples show an increased level of NOx”, the “toxic effect or damage in the skin of treated animals” value ([7]; 200 ppm gNO, compared with control) was “no toxic effect or damage were observed” and the “blood methemoglobin (MetHb) level” value ([7]; 6 day intermittent exposure to 200 ppm gNO, compared with air control) was “did not show an increase level of MetHB”. For the same molecule, the “toxic effects (cellular debris due to apoptosis), histology” value [8] was “No toxic effects”, the “healing process, histology” value ([8]; compared with control wounds) was “healthier healing process” and the “neutrophil infiltration in wound” value ([8]; compared with control wounds) was “lower level of neutrophil concentration”. For the same molecule, the “expression of collagenase mRNA” value [9] was “increased”, the attachment capacity ([10]; 160 ppm gNO, within 1 hour of culturing, control the same) was 70% and the “proliferation of fibroblast cells” value ([10]; 200 ppm NO, compared with control) was “positive effect of increasing proliferation”. The “harmful effects on the fibroblast” value ([10]; around 200 ppm gNO, 24 and 48 hours) was “did not have harmful effects”, the “toxic effect, morphology and attachment” value ([10]; gNO concentrations less than 200 ppm continuously for 48 hours) was “No toxic effect” and the tube formation [11] was “no significant difference”.
